{"source": "patent US20260207580A1", "about": "“NITROXOLINE FOR USE IN THE TREATMENT OR PREVENTION OF A MALIGNANT PERIPHERAL NERVE SHEATH TUMOUR” (HEALX LTD, priority 2022, published 2026)", "format_in_all_cases": "cell-based", "key": {"Nf1^−/− DNSCs [1]": {"test_system": "Nf1^−/− DNSCs", "experiment": "Cellular apoptosis, Caspase-Glo 3/7 kit (caspase 3/7 activity)", "conditions": "nf1−/− cells; 48 hrs incubation; serially diluted from 105 μM", "experimental": "(§1) Nf1-Ink4a/Arf mutant DNSCs have increased cell cycle activity and proliferation in vitro, consistent with the in vivo phenotypes. The present study utilizes Nf1^−/− and Nf1^−/−; Ink4a/Arf^+/− mutant DNSCs obtained by transient infection of Nf1^flox/flox and Nf1^flox/flox; Ink4a/Arf^flox/+ DNSCs with an adenovirus carrying Cre recombinase. Selectivity of nitroxilone was compared between Nf1^−/− and Nf1^−/−; Ink4a/Arf^+/− DNSCs.\n(§2) Nf1^−/− and Nf1^−/−; Ink4a/Arf^+/− DNSCs described above were treated with serially diluted nitroxoline starting from 105 μM and incubated for 48 hrs. After the incubation period, proliferation, viability and apoptosis assays were performed as described below: • DNSC proliferation and viability was assessed using the CellTiter-Glo Assay (Promega) which measures […]. […] After 10 minutes, the plates were read using a 96-well microplate luminometer. • To assess cellular apoptosis, the Caspase-Glo 3/7 kit (Promega) was utilized according to the manufacturer's instructions. […] After 10 minutes, plates were read using a 96 well luminometer to measure caspase 3/7 activity."}, "[2]": {"test_system": "Nf1^−/−; Ink4a/Arf^+/− DNSCs", "experiment": "Cellular apoptosis, Caspase-Glo 3/7 kit (caspase 3/7 activity)", "conditions": "cells Nf1−/−, 48 hrs incubation, serially diluted from 105 μM", "experimental": "as §1, §2"}, "Nf1^−/− DNSCs [3]": {"test_system": "Nf1^−/− DNSCs", "experiment": "DNSC proliferation and viability, CellTiter-Glo Assay", "conditions": "cells Nf1−/−; 48 hrs incubation; serially diluted from 105 μM", "experimental": "as §1, §2"}, "[4]": {"test_system": "Nf1^−/−; Ink4a/Arf^+/− DNSCs", "experiment": "DNSC proliferation and viability, CellTiter-Glo Assay", "conditions": "cells Nf1−/−, 48 hrs incubation, serially diluted from 105 μM", "experimental": "as §1, §2"}}}
{"smiles": "O=[N+]([O-])c1ccc(O)c2ncccc12", "note": "[Nitroxoline, 5-nitroquinolin-8-ol]", "values": [{"measurement": "concentrations at which the induction of apoptosis was evident", "setting": "Nf1^−/− DNSCs [1]", "result": "30 to 100", "unit": "µM"}, {"measurement": "concentrations at which the induction of apoptosis was evident", "setting": "[2]", "result": "greater than 10 μM"}, {"measurement": "concentrations at which the antiproliferative effect was observed", "setting": "Nf1^−/− DNSCs [3]", "result": "greater than 10 μM"}, {"measurement": "concentrations at which the antiproliferative effect was observed", "setting": "[4]", "result": "greater than 3 μM"}]}
